Assay results reported in PMC7663645 (Molecules, 2020).

Target: T1, MAO-B (Rattus norvegicus, UniProt P19643)
T1 construct: from tissue; host or cells: rat brain (membrane homogenates)
T1 sequence (P19643 1-520): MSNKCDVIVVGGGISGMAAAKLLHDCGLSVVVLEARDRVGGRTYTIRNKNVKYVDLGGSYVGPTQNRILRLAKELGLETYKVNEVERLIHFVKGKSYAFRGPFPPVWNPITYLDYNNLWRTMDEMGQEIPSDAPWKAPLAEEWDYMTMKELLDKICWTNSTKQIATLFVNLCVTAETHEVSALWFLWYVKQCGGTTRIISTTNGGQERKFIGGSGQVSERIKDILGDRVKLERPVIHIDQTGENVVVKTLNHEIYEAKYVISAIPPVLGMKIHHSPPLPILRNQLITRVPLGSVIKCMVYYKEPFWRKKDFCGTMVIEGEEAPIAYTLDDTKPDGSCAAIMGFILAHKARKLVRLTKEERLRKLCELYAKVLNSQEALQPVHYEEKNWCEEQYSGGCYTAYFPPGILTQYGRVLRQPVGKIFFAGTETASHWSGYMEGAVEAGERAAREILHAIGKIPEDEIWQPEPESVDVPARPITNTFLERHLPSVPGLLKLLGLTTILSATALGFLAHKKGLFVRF
Assay: Radioligand competition binding assay with L-[^3H]Deprenyl on rat brain membrane homogenates
Settings: homologous binding experiments, rat brain homogenates
Description: The affinity of the synthesized derivatives towards MAO-B was determined in radioligand competition binding assays. […] Non-specific binding was determined in the presence of 10 μM of rasagiline. The reaction was terminated by rapid filtration using Whatman GF/B glass-fiber filters, pre-soaked in 0.3% polyethyleneimine, and a 48-channel harvester (Biomedical Research and Development Laboratories, Gaithersburg, MD, USA) followed by washing four times with ice-cold TRIS-HCl buffer. Filter-bound radioactivity was quantified by liquid scintillation counting. The results represent two single experiments, each performed in triplicate. […] The data were analyzed with GraphPad Prism, Version 4.1 (GraphPad Inc., La Jolla, CA, USA).

Compound	Bmax
L-[^3H]Deprenyl [reference compound]	2.29 ± 2.08 pmol/mg protein

Same assay, conditions: read-out: IC50 (MAO-B binding affinity)

IC50	Compound
> 10 µM	Fc1cc(N2CCN(CC=Cc3ccccc3)CC2)ccn1 [Compound 11, 1-Cinnamyl-4-(2-fluoropyridin-4-yl)piperazine]
> 10 µM	O=C(c1ccc(F)cc1)N1CCN(C/C=C/c2ccccc2)CC1 [Compound 8, (E)-(4-cinnamylpiperazin-1-yl)(4-fluorophenyl)methanone]
> 10 µM	Fc1ccccc1/C=C/CN1CCN(c2cccnc2F)CC1 [Compound 17, (E)-1-(3-(2-Fluorophenyl)allyl)-4-(2-fluoropyridin-3-yl)piperazine]
> 10 µM	Fc1ccc(N2CCN(C/C=C/c3ccccc3F)CC2)cn1 [Compound 15, (E)-1-(3-(2-Fluorophenyl)allyl)-4-(6-fluoropyridin-3-yl)piperazine]
> 10 µM	Fc1cc(N2CCN(C/C=C/c3ccccc3F)CC2)ccn1 [Compound 16, (E)-1-(3-(2-Fluorophenyl)allyl)-4-(2-fluoropyridin-4-yl)piperazine]
> 10 µM	Fc1cccc(N2CCN(CC=Cc3ccccc3)CC2)n1 [Compound 9, 1-Cinnamyl-4-(6-fluoropyridin-2-yl)piperazine]
> 10 µM	O=C(c1ccc(F)cc1)N1CCN(C/C=C/c2ccccc2F)CC1 [Compound 13, (E)-(4-Fluorophenyl)(4-(3-(2-fluorophenyl)allyl)piperazin-1-yl)methanone]
> 10 µM	Fc1cccc(N2CCN(C/C=C/c3ccccc3F)CC2)n1 [Compound 14, (E)-1-(3-(2-Fluorophenyl)allyl)-4-(6-fluoropyridin-2-yl)piperazine]

Compound	IC50
Fc1ncccc1N1CCN(CC=Cc2ccccc2)CC1 [Compound 12, 1-Cinnamyl-4-(2-fluoropyridin-3-yl)piperazine]	> 10 µM
Fc1ccc(N2CCN(CC=Cc3ccccc3)CC2)cn1 [Compound 10, 1-Cinnamyl-4-(6-fluoropyridin-3-yl)piperazine]	> 10 µM

Test system: recombinant human MAO-B
Assay: not given
Parameters: method as in earlier work
Settings: cited from earlier work

Compound	IC50
L-[^18F]Deprenyl	0.227 ± 0.0368 µM

Test system: MAO-B
Assay: not given
Parameters: method as in PMID 31060887
Settings: cited from earlier work

Compound	IC50
COC[C@@H]1CN(c2noc3cc(OCCCCC[18F])ccc23)C(=O)O1 [[^18F]6]	0.11 µM
